From PubChem BioAssay AID1419 (Emory University Molecular Libraries Screening Center, 2008)
The source made the active and inactive calls. How the calls were made is not given here.

Assay: blockers of an Epstein-Barr virus protein-peptide interaction – biochemical, fluorescence polarization, dose response (AID 1419)
Settings: cell-free protein-peptide binding, 2 h; for fold change: measured here: P channel fold over control, at 54 µM

IC50	SMILES	fold change
2.52 µM	O=C(OCCN1C(=O)c2cccc3c(N4CCOCC4)ccc(c23)C1=O)c1cccc(Cl)c1	56.6
4.67 µM	N=c1oc2ccc3ccccc3c2cc1-c1nc(-c2ccccc2)cs1	8.37
10.3 µM	CN1CCc2cc3c(c4c2[C@H]1[C@H](O)c1ccccc1-4)OCO3	2.19
> 54 µM (inactive)	Cc1ccc(/C=c2\sc3nc(-c4cccnc4)nn3c2=O)cc1	1.13
5.56 µM	Cc1cc(-c2cccs2)c2c(N)c(C(=O)c3ccc4c(c3)OCO4)sc2n1	6.29
> 54 µM (inactive)	CC(=O)NC1C(OCCOc2ccc(Cl)cc2Cl)OC(COC(C)=O)C(OC(C)=O)C1OC(C)=O (centres undefined)	1.04
> 54 µM (inactive)	Nc1c(NCCC2=CCCCC2)c(=O)[nH]c(=O)n1Cc1ccccc1	1.7
> 54 µM (inactive)	CCN1/C(=C2\SC(=S)N(Cc3ccccc3)C2=O)Sc2ccccc21	2.96
1.37 µM	CCN(CC)c1nc2ccccc2nc1C(C#N)C(=O)NCCc1ccccc1 (centres undefined)	22
2.69 µM	CCN(CC)c1ccc(/C=C(\C#N)C(=O)c2ccc(Br)cc2)cc1	107
1.71 µM	COc1ccccc1NC(=O)c1sc2nc(Cc3ccccc3)cc(C(F)(F)F)c2c1N	10.7
> 54 µM (inactive)	O=C(CCN1C(=O)COc2ccccc21)NCc1ccco1	1.02
> 54 µM (inactive)	CCOc1ccccc1-c1c2cc(O)c(=O)cc-2oc2cc(O)c(O)cc12	232
30.4 µM (inactive)	O=C(O)c1ccccc1/C=N/NC(=O)c1cc(-c2ccco2)nc2ccccc12	1.03
13 µM	CCn1c(CSc2nccn2C)nc2cc(C(=O)O)ccc21	2.34
> 54 µM (inactive)	O=S(=O)(Nc1ccc2c(c1)OCCO2)c1cccc2cccnc12	0.963
5.72 µM	CS(=O)(=O)Nc1nc2n(n1)C(c1ccccc1)C=C(c1ccc(Br)cc1)N2 (centres undefined)	2.76
1.97 µM	N#CC1=C(N)Oc2ccc3ccc(O)cc3c2C1c1ccsc1 (centres undefined)	2.08

IC50	SMILES	fold change
25.5 µM	Cc1nn(-c2ccccc2)c(N2CCCC2)c1/C=C1\N=C(c2ccccc2)OC1=O	3.5
2.92 µM	Cc1cc(/C=C(/C#N)c2nc3ccccc3[nH]2)c(C)n1-c1cc(C(=O)O)cc(C(=O)O)c1	23.1
3.95 µM	Cc1cc(=O)oc2c3c4c(cc12)OCCN4CCC3	3.5
> 54 µM (inactive)	Cc1ccc(C(=O)Nn2c(O)c(C=C3N=c4ccccc4=N3)sc2=S)cc1	1.04
3.39 µM	CCN(CC)c1ccc(/C=c2/sc3nnc(-c4ccccc4C)n3c2=O)cc1	17.4
> 54 µM (inactive)	CCOC(=O)CC(=O)CSc1nc(-c2cccnc2)ccc1C#N	1.63
13.2 µM	Cc1noc(/C=C/c2ccc(-c3ccccc3Cl)o2)c1[N+](=O)[O-]	7.6
2.87 µM	O=C(OCCN1C(=O)c2cccc3c(N4CCOCC4)ccc(c23)C1=O)c1ccccc1Cl	65.4
> 54 µM (inactive)	Cc1ccc(NC(=O)CN2C(=O)S/C(=C/c3ccc(O)c([N+](=O)[O-])c3)C2=O)cc1C	0.99
> 54 µM (inactive)	Cc1ccc(NC(=O)CN2C(=O)N/C(=C/c3cccn3-c3ccc(C(=O)O)cc3)C2=O)cc1	1.2
9.87 µM	C#CCn1cc(C=C2C(=O)c3ccccc3C2=O)c2ccccc21	4.31
> 54 µM (inactive)	CSC1=N/C(=C\c2ccccc2F)C(=O)S1	1.05
< 0.42 µM	C=CCn1c(=O)[nH]c2nc3cc(N=CN(C)C)c(C)cc3nc2c1=O	40
> 54 µM (inactive)	O=C(NNC(=O)c1sccc1-n1cccc1)c1cccc(Cl)c1	0.963
3.57 µM	Cc1ccccc1-n1c(SCc2c(C)noc2C)nnc1-c1cccnc1	4.88
3.39 µM	CCCN1C(=O)/C(=C\C=C2\N(CC)c3ccccc3C2(C)C)SC1=S	20
0.86 µM	Cc1nc(Cl)c2c(n1)NC1=C(O2)C(=O)CCC1	22.3

SMILES	IC50	fold change
COc1cc(/C=C2\SC(=O)N(Cc3ccc(Cl)cc3)C2=O)cc([N+](=O)[O-])c1O	24.9 µM	1.04
Oc1ccccc1C=NC1=NN(c2cccc(C(F)(F)F)c2)CC1	3.11 µM	19.9
Cc1cc(=O)oc2c(CN3CCC(C)CC3)c(O)c(Cl)cc12	2.42 µM	2.16
Cn1c(-c2ccc(C=O)s2)nc2c3ccccc3c3ccccc3c21	4.07 µM	14.6
CCCn1nc(-c2ccccc2)c2nc3ccccc3nc21	2.37 µM	32
CN(C)c1ccc2c3c(cccc13)C(=O)N(c1ccccc1)C2=O	4.05 µM	11
CCCCOC(=O)Cn1c2ccc(OC)cc2c2nc3ccccc3nc21	4.54 µM	5.84
